Experimental findings from EPA's ToxValDB 9.5 (doi:10.2903/j.efsa.2009.332r) are described below.

SMILES strings stand for the structures.

The conditions of data set [1]: chronic/long-term.
Data set [2] has as its system Anas platyrhynchos. The note with it: acute; oral; unspecified; mortality.
Data set [3] has as its system Apis mellifera. The note with it: acute; dermal; mortality.
The subject of data set [4] is Canidae. As to conditions: chronic; duration: 1 years; oral; Dog Other; hematological.
Data set [5] has as its system Colinus virginianus. The note with it: for LD50: acute, oral, mortality.
The subject of data set [6] is Daphnia magna. As to conditions: chronic/long-term; duration: 21 days; mortality.
In data set [7] the test system is Mus musculus. The note with it: acute; oral; mortality.
Data set [8] relates to Oncorhynchus mykiss. As to conditions: chronic/long-term; growth.
Data set [9] relates to Rattus norvegicus. The note with it: oral.
The test system of data set [10] is Tagia sp. The note with it: acute; duration: 14 days; mortality.

`O=C(NC(=O)c1c(F)cccc1F)Nc1ccc(Cl)cc1` [Diflubenzuron] showed an NOEL in data set [1] of 3680 mg/kg-day. Further, the LD50 is more than 5000 mg/kg in [2]; 0.05 µg/piece in data set [3]; more than 1210 mg/kg-day in data set [5] (diet); more than 5000 mg/kg in data set [5]; more than 4640 mg/kg in [7]; 4640 mg/kg in [9] (acute, mortality). Besides, the NOAEL in data set [4] worked out at 10 mg/kg-day; in data set [9] (subchronic, duration: 13 weeks, hematological), 11 mg/kg-day. Also, the NOEC in [5] (reproduction developmental) stood at 42.7 mg/kg-day; in data set [6], 4e-05 mg/L; in data set [8] it was 0.2 mg/L. The compound also returned an LC50 in [10] of more than 1000 mg/kg.
